Patent US11147219B2, “Methods and systems for growing plants using silicate-based substrates, cultivation of enhanced photosynthetic productivity and photosafening by utilization of exogenous glycopyranosides for endogenous glycopyranosyl-protein derivatives, and formulations, process and systems for the same” (Innovation Hammer, LLC, priority 2011, dated 2021)
“Also recorded” adds a separate entry of the source.

What was measured:
plants = test: Relative potency of glycosides on plants (stated, no method); conditions: in vivo
Crocus = test: Rooted Crocus cultivated in 700 μm silicate microbeads, treated with formulation; format: in vivo; conditions: 0.3 mM APM with 3 ppm Mn, 6 ppm Ca; Crocus in 700 μm microbeads
Protocol: Individual plants were started from seeds, bulbs, or vegetative clones, inserted into containers of pre-moistened microbeads. Seedlings included ryegrass and corn; bulbs were of Crocus and paperwhite narcissus; and vegetative cuttings were from Coleus. Seeds generally germinated and were selected according to day of emergence of first roots as control and treatment sets. Roots were treated thereafter.
Plants were cultivated under controlled environmental conditions as follow: GE Ecolux® plant and aquarium F40T12 fluorescent illumination, photosynthetically active radiation (PAR) of 100 μEin·m^−2·s^−1, diel cycle of 16:8 h light:dark, 28:26° C., 10% to 20% relative humidity. Indoxyl glycopyranoside (IG) was formulated in water and applied and controls were given equal volumes of water without IG. […] Clear plastic 500 cc containers, perforated for drainage, were filled to a depth of 10 cm with up to 900 grams of microbeads each. Initially, basal plates of bulbs were immersed 1 cm into moistened 700 μm nmd silicate beads to initiate rooting. […] Controls were treated with addition of 0.1 ml water to their media. After 8 h uptake of the treatments, fertigation resumed in a manner consistent with pH-control. […]
For all experiments, at 7 d to 14 d after treatment, microbeads were saturated with water. […] For paperwhites, volumes of entire roots were measured by displacement of water in glass beakers.

[1] = tested on: radish "Cherry Bell" Raphanus sativus L.; test: Greenhouse foliar treatment of radish, root dry weight; format: in vivo; conditions: for active concentration applied for growth response: foliar, radish
Protocol: Plant responses to formulations of an alkyl-α-D-mannopyranose and an electron donating-aryl-α-D-mannopyranose were consistent with preferred binding tendencies to displace glucose from storage. Plants were maintained in automated greenhouses controlled for temperature, light and circulation. Environmental conditions during the course of the studies averaged 13:11 hour L:D photoperiod, 25°:20° C. day:night and 20% to 80% relative humidity. Sunlight was supplemented with electrical illumination to achieve photosynthetically active radiation levels ranging from 350 to 600 μmol photons·m^−2·s^−1 at the level of the phylloplane. Solutions for treated and control plants were applied within an hour, otherwise subjecting all plants to identical conditions consistent with good laboratory practices. Solutions applied to controls included nutrients and surfactants identical to the treatment solution, but without the active compound. General supplementation of foliar formulations included the following: 10-100 mM ammonium salt; 1-6 ppm manganese, Mn-EDTA; and 5-10 ppm calcium, Ca-EDTA. For example, foliar solutions of 0.3 mM p-aminophenylmannopyranoside, hereafter referred to as APM, were supplemented with 23 mM ammonium sulfate, (NH4)2SO4, 3 ppm Mn and 6 ppm Ca; and Nutrient Control contained 23 mM (NH4)2SO4, 3 ppm Mn and 6 ppm Ca. The foliar concentrations of Mn and Ca were higher than those specified previously because of the low volumes of foliar applications relative to hydroponic root immersion volumes, and they were particularly effective in combination with foliar applications of compounds because they supported high rates of productivity in the treated plants without phytotoxicity. Compounds for experimentation included the following: methyl-α-D-mannopyranoside (MeM), APM, and methyl-α-D-glucopyranoside (MeG). All foliar solutions were formulated with 1 gm/liter surfactant blend consisting of 0.5 gram DowCorning Q5211 dispersed into 1.5 grams BASF Pluronic L62. As a matter of course, untreated controls that foliar nutrients and wetting agents were not introducing artifacts. The standard volume for foliar application of experimental treatments was 200 liters/hectare. Identical volumes of foliar spray per tray of plant cultures were applied mechanically in a single pass. Controls were placed in the same location and given identical irrigation and handling as the treated plants. To compare the effects of treatments under tightly controlled conditions, plants were cultured, harvested, cleaned and weighed as per previously described methods. Treated plants were statistically analyzed in comparisons against controls. Each survey population held sufficient replicate sample numbers to make meaningful statistical analyses utilizing SPSS® software. Significance was determined at the 95% confidence interval (CI) of the difference. Counts of population numbers are denoted as “n” values. For experiments, radish “Cherry Bell” Raphanus sativus L., a root crop was planted and treated. […] Therefore, least concentrations were selected for statistical experimentation; and 200 l/ha foliar 1 mM MeM or 0.3 mM APM in nutrient-supplemented formulations were applied to 5 cm tall sprouts; while, Nutrient Controls were given foliar applications of identical solutions without the α-D-glycopyranosides; and no foliar solutions were applied to untreated controls which were otherwise identically cultivated and irrigated. For our quantification experiments, when improvements of root productivity over those of nutrient controls were visibly discernible 12 d after treatment, all populations of controls and treatments were harvested, and individual dry weights of treatment and control populations were analyzed.

radish = test: Foliar application to radish grown hydroponically in 700 μm microbeads; format: in vivo; conditions: with 3 ppm Mn, 6 ppm Ca
Protocol: Approximately 200 grams of beads/cell filled individual 100 cc cells of plastic flats. Roots of radish are cultivated hydroponically by immersion of roots in 700 μm nmd shot, pre-moistened with buffered nutrient solution that included soluble Mn and Ca, and plants were allowed to grow for 72 h prior to treatment with aminophenyl-α-D-mannopyranoside.
4-aminophenyl-α-D-mannopyranoside was dissolved in water (APM needs first to be solubilized in a small volume (1 ml) of ethanol prior to being added into water) with 3 ppm Mn as EDTA, 6 ppm Ca as EDTA, 10% isopropyl alcohol and 1.5 g/L Pluronic L-62. A solution of the formulation was applied to radish foliage. When compared to an identical control formulation without the aminophenyl-α-D-mannopyranoside, the above formulation provided a 20% root increase. For aminophenyl-α-D-mannopyranoside, the proper dose for radish is between 1 to 100 μg per plant and preferably between 5 to 50 μg per plant. This is the equivalent to an application of 75 to 100 gallons per acre at a preferred volume of 100 gallons per acre of up to 2 gm/liter.

Radish seedlings = test: Radish seedling assay, immersion in nutrient solution with α-mannosides; format: in vivo; conditions: for growth response compared to Nutrient Control (visual): 1 mM TAM, 100 μM MP, 25 μM to 500 μM MeM, 10 μM APM
Protocol: Plants were cultured in research facilities and consistency of response to treatments was achieved by supplementation with chelated calcium and manganese. All plants were regularly given modified Hoagland water-culture nutrients. […] Controls were placed in the same location and all plants were given the same irrigation, fertilizers, and handling, but without the experimental compounds. Plants were matched to controls and treated within a week of emergence of cotyledon and true leaves. The performance of compounds was evaluated by comparing means of individual dry weights of shoots and roots. Statistics applied two-tailed Student's t-test with p-values significant within 95% confidence intervals. Counts of populations are “n” values and standard error is denoted “±SE.” Specialty chemicals included the following: tetramethyl-β-D-glucoside (TMG); tetraacetyl-D-glucopyranose (TAG); pentaacetyl-α-D-mannopyranose (MP); p-amino-phenyl-α-D-mannoside (APM); methyl-α-D-mannoside (MeM) and methylglucoside (MeG). MPG was synthesized. 2,3,4,6-tetra-O-acetyl-D-mannopyranose (αβ) was utilized. As required, MP and APM were dissolved in a lower aliphatic alcohol prior to dilution in aqueous media.
Assay—Radish seedlings were treated with α-mannosides after emergence of radicles. Seedlings were matched and transferred to Nutrient Control or treatment solutions. Assays were maintained under environmental conditions as follow: Photosynthetically active radiation 100 μEin·m^−2·sec^−1, diel cycle of 16:8 h light:dark, 26:26° C.

[2] = tested on: radish (Raphanus sativus L., cultivar "Cherry Bell"); test: Radish seed germination and seedling growth, nutrient omission media; format: in vivo
Protocol: Treatment of seeds and seedlings by aqueous solutions is exemplified by mannosides supplemented with soluble divalent cations in complete mannosides formulations. […] Benefits of such exemplary seed priming methods are as follows: Germination and early growth of radish (Raphanus sativus L., cultivar “Cherry Bell”) and Swiss Chard (Beta vulgaris subspecies cicla L., cultivar “Fordhook® Giant”) were tested for response to α-mannosides supplemented with Ca^2+ and/or Mn^2+. Rapid assays of radish seed germination and growth used hydroponic cultures with no solid medium; longer experiments with Swiss Chard used a 2-5 mm substratum of 700 μm diameter glass microbeads. Neutralization of glass microbeads may be undertaken with dilute mildly acidic solution titrated to pH 6; for example, with mineral acids such as hydrochloric acid, sulfuric acid, nitric acid, and the like; organic acids such as uronic, citric, malic, lactic, salicylic, ascorbic, succinic, oxaloacetic, ketoglutaric, fumaric acids, and amino acids, and the like; artificial biological buffering agents such as TRIS, BIS TRIS, MES, MOPS, HEPES, and the like; fertilizers; and most preferably, phosphates; and the most highly preferred compounds are combinations of compounds in a pH 6-buffer that provide major nutrients for plants, such as MAP with DKP or DAP with MKP; and the like. When test medium was added, the glass microbeads formed an even layer, drawing liquid to the surface by capillary action. Seeds were examined to exclude aberrantly large, small, or damaged seeds, and were placed on the surface of the substratum. For experiments using post-germination seedlings, seeds were germinated in deionized water prior to exposure to nutrient media. A seed with an emerged radicle >1 mm was recorded as germinated, and germinated seeds were counted daily, until 95% germination. There was no visible evidence of either desiccation or waterlogging effects. Glass microbeads were removed by immersion and agitation in water, or manually with fine forceps. Harvested plants were oven-dried to determine dry weight. Treatment and control solutions were prepared by dissolving nutrients in deionized ultrapure water.
Growth media were based on omission or inclusion of glycosides and targeted divalent cations. Triose is the abbreviation for α-1,3-α-1,6 mannotriose) and MEM is methyl-α-D-mannoside. Terminology used herein indicates the omission or inclusion of nutrients: 000=control medium with no glycoside, Ca^2+ or Mn^2+; MeMOO=medium with MeM, but no Ca^2+ or Mn^2+; MeMCaO=medium with MeM and Ca^2+, but no Mn^2+, OCaMn=medium with no MeM, but with Ca^2++Mn^2+; and so on. Similar terminology is used for media containing triose. Results cited are means±SE. […]

Compound: OC[C@H]1O[C@H](O[C@H]2[C@H](O)[C@@H](O)C(O)O[C@@H]2CO)[C@H](O)[C@@H](O)[C@@H]1O (mixture of isomers) [maltose]
- potency relative to alpha-MeG (plants): lower potency
- potency relative to beta-MeG (plants): 9 ×

Compound: Nc1ccc(O[C@H]2O[C@H](CO)[C@@H](O)[C@H](O)[C@@H]2O)cc1 [APM, 4-amino-phenyl-α-D-mannopyranoside]
- root and shoot development / productivity compared to Control (Crocus): clearly advanced productivity; also recorded: advanced root and shoot development
- root mean dry weight over the Nutrient Control ([1]; foliar 0.3 mM with nutrients): significant (n=72; p=0.003) increase
- root mean dry weight increase over controls ([1]; foliar 0.3 mM, 200 l/ha, harvest 12 d after treatment, n=72, p=0.003): approximately 20%
- active concentration applied for growth response [1]: 0.3 mM
- root increase compared to identical control formulation (radish): 20%
- mean dry weight of whole plants (Radish seedlings; 5 μM, 48 h): 9.4 mg
- difference of mean dry weight from the Nutrient Control (Radish seedlings; 5 μM, 48 h, p=0.06): not significantly different; also recorded: no significant difference
- mean dry weight of whole plants (Radish seedlings; 10 μM, 48 h): 10.3 mg
- enhancement of mean dry weight over Nutrient Control (Radish seedlings; 100 μM, 48 h): 10%
- mean dry weight of whole plants (Radish seedlings; 100 μM, 48 h): 11 mg
- growth response compared to Nutrient Control (visual) (Radish seedlings; 48 h): advanced growth

Compound: CC(=O)OC[C@H]1O[C@H](OC(C)=O)[C@@H](OC(C)=O)[C@@H](OC(C)=O)[C@@H]1OC(C)=O [MP, pentaacetyl-α-D-mannopyranose]
- mean dry weight of whole plants (Radish seedlings; 100 μM, 48 h): 8.2 mg
- growth response compared to Nutrient Control (visual) (Radish seedlings; 48 h): advanced growth responses
- potency compared with the mixed anomers (Radish seedlings; effective doses 100 μM MP and 1 mM TAM): higher potency

Compound: CO[C@H]1O[C@H](CO)[C@@H](O)[C@H](O)[C@H]1O [MeG, methyl-α-D-glucopyranoside, reference compound]
- productivity over nutrient and untreated controls ([1]; foliar 129 mM with Ca, Mn and ammoniacal nitrogen): consistently increased productivities
- active concentration applied for growth response [1]: 129 mM

Compound: CC(=O)OC[C@H]1OC(O)[C@@H](OC(C)=O)[C@@H](OC(C)=O)[C@@H]1OC(C)=O (stereo partly drawn) [TAM, 2,3,4,6-tetra-O-acetyl-D-mannopyranose (αβ)]
- mean dry weight of whole plants (Radish seedlings; 100 μM, 48 h): 8.1 mg
- difference of mean dry weight from the Nutrient Control (Radish seedlings; 100 μM, 48 h, p=0.11): no significant difference
- mean dry weight of whole plants (Radish seedlings; 1 mM, 48 h): 8.8 mg
- growth response compared to Nutrient Control (visual) (Radish seedlings; 48 h): advanced growth responses

Compound: OC[C@H]1O[C@H](OC[C@H]2OC(O)[C@@H](O)[C@@H](O[C@H]3O[C@H](CO)[C@@H](O)[C@H](O)[C@@H]3O)[C@@H]2O)[C@@H](O)[C@@H](O)[C@@H]1O (stereo partly drawn) [triose, α-1,3-α-1,6 mannotriose]
- seedling growth compared with no triose ([2]; 1 μM triose, lacking Ca2+): comparable to seedlings grown with no triose
- mean dry weight compared with medium with no triose ([2]; 0.3, 1 or 10 μM triose with Mn2+ and Ca2+, 1 day treatment, second day): significantly greater
- concentration at which no growth enhancement was observed ([2]; radish seedlings, complete media): less than 0.3 μM
